Assay results as given in patent US7060822B1, “2-pyrazolin-5-ones” (Abbott GmbH & Co. KG, priority 1999, dated 2006).

Structure (SMILES) | melting point
Cc1[nH]c(C=C2C(=O)NN=C2c2cnccn2)c(C)c1C(=O)CN(C)C.Cl | > 300 °C (dec.)
O=C1NN=C(c2cccnc2)C1=Cc1c[nH]c2ccccc12 | 305 to 307 °C
O=C1NN=C(c2cccnc2)C1=Cc1cc2ccccc2[nH]1 | 155 to 157 °C
O=C1NN=C(c2cccnc2)C1=Cc1c[nH]c2ncccc12 | 212 to 215 °C
Cc1cc(C)c(C=C2C(=O)NN=C2c2cccnc2)[nH]1 | 235 to 238 °C
Cc1ccc(C=C2C(=O)NN=C2c2cccnc2)[nH]1 | 210 to 212 °C
O=C1NN=C([C@@H]2C[C@H]2c2ccccc2)C1=Cc1ccc[nH]1 (relative stereo) [Example 106, 3-(trans-2-phenylcyclopropyl)-4-[(pyrrol-2-yl)methylene]-2-pyrazolin-5-one] | 173 to 175 °C
O=C1NN=C([C@@H]2C[C@H]2c2ccccc2)C1=Cc1c[nH]c2ccccc12 (relative stereo) [Example 285, 4-[(Indol-3-yl)methylene]-3-(trans-2-phenyl-1-cyclopropyl)-2-pyrazolin-5-one] | 280 to 282 °C
Cc1cc(C=C2C(=O)NN=C2C2CC2)[nH]c1C [Example 1, 3-Cyclopropyl-4-[(4,5-dimethylpyrrol-2-yl)methylene]-2-pyrazolin-5-one] | 220 to 222 °C
O=C1NN=C(Cc2ccccc2)C1=Cc1ccc[nH]1 [Example 2, 3-Benzyl-4-[(pyrrol-2-yl)methylene]-2-pyrazolin-5-one] | 182 to 184 °C
COc1ccc(OCC2=NNC(=O)C2=Cc2ccc[nH]2)cc1 [Example 3, 3-(4-Methoxyphenyloxymethyl)-4-[(pyrrol-2-yl)methylene]-2-pyrazolin-5-one] | 177 to 180 °C
O=C1NN=C(COc2ccccc2)C1=Cc1ccc[nH]1 [Example 4, 3-Phenyloxymethyl-4-[(pyrrol-2-yl)methylene]-2-pyrazolin-5-one] | 163 to 165 °C
O=C1NN=C(COc2ccc(Cl)cc2)C1=Cc1ccc[nH]1 [Example 5, 3-(4-Chlorophenyloxymethyl)-4-[(pyrrol-2-yl)methylene]-2-pyrazolin-5-one] | 218 to 222 °C
COc1ccc(CC2=NNC(=O)C2=Cc2ccc[nH]2)cc1 [Example 6, 3-(4-Methoxybenzyl)-4-[(pyrrol-2-yl)methylene]-2-pyrazolin-5-one] | 179 to 180 °C
Cc1c(CCC(=O)O)c[nH]c1C=C1C(=O)NN=C1Cc1ccccc1 [Example 7, 3-Benzyl-4-{[4-(2-carboxyethyl)-3-methylpyrrol-2-yl]methylene}-2-pyrazolin-5-one] | 270 to 272 °C
Cc1c[nH]c(C=C2C(=O)NN=C2Cc2ccccc2)c1CCC(=O)O [Example 8, 3-Benzyl-4-{[3-(2-carboxyethyl)-4-methylpyrrol-2-yl]methylene}-2-pyrazolin-5-one] | 226 to 228 °C
Cc1ccc(OCC2=NNC(=O)C2=Cc2ccc[nH]2)cc1 [Example 9, 3-(4-Methylphenyloxymethyl)-4-[(pyrrol-2-yl)methylene]-2-pyrazolin-5-one] | 207 to 210 °C
CC(C)OC1=NNC(=O)C1=Cc1ccc[nH]1 [Example 11, 3-Isopropoxy-4-[(pyrrol-2-yl)methylene]-2-pyrazolin-5-one] | 172 to 174 °C
O=C1NN=C(CCc2ccccc2)C1=Cc1ccc[nH]1 [Example 12, 3-Phenylethyl-4-[(pyrrol-2-yl)methylene]-2-pyrazolin-5-one] | 145 to 147 °C
O=C1NN=C(Nc2ccccc2)C1=Cc1ccc[nH]1 [Example 13, 3-Phenylamino-4-[(pyrrol-2-yl)methylene]-2-pyrazolin-5-one] | 285 to 287 °C
Cc1ccc(CC2=NNC(=O)C2=Cc2ccc[nH]2)cc1 [Example 14, 3-(4-Methylbenzyl)-4-[(pyrrol-2-yl)methylene]-2-pyrazolin-5-one] | 254 to 255 °C
Cc1ccc(NC2=NNC(=O)C2=Cc2ccc[nH]2)cc1 [Example 15, 3-(4-Methylphenylamino)-4-[(pyrrol-2-yl)methylene]-2-pyrazolin-5-one] | 256 to 258 °C
COc1ccc(NC2=NNC(=O)C2=Cc2ccc[nH]2)cc1 [Example 16, 3-(4-Methoxyphenylamino)-4-[(pyrrol-2-yl)methylene]-2-pyrazolin-5-one] | 288 to 290 °C
O=C1NN=C(Cc2ccc(Cl)cc2)C1=Cc1ccc[nH]1 [Example 17, 3-(4-Chlorobenzyl)-4-[(pyrrol-2-yl)methylene]-2-pyrazolin-5-one] | 178 to 180 °C
O=C1NN=C(Nc2ccc(Cl)cc2)C1=Cc1ccc[nH]1 [Example 18, 3-(4-Chlorophenylamino)-4-[(pyrrol-2-yl)methylene]-2-pyrazolin-5-one] | 245 to 247 °C

Structure (SMILES) | melting point
O=C1NN=C(COc2cccc(Cl)c2)C1=Cc1ccc[nH]1 [Example 19, 3-(3-Chlorophenyloxymethyl)-4-[(pyrrol-2-yl)methylene]-2-pyrazolin-5-one] | 165 to 167 °C
O=C1NN=C(c2c[nH]c3ccccc23)C1=Cc1ccc[nH]1 [Example 20, 3-(Indol-3-yl)-4-[(pyrrol-2-yl)methylene]-2-pyrazolin-5-one] | 300 to 305 °C
COc1cccc(CC2=NNC(=O)C2=Cc2ccc[nH]2)c1 [Example 21, 3-(3-Methoxybenzyl)-4-[(pyrrol-2-yl)methylene]-2-pyrazolin-5-one] | 169 to 171 °C
COc1ccc(CC2=NNC(=O)C2=Cc2ccc[nH]2)cc1OC [Example 22, 3-(3,4-Dimethoxybenzyl)-4-[(pyrrol-2-yl)methylene]-2-pyrazolin-5-one] | 164 to 165 °C
COc1ccc(CCC2=NNC(=O)C2=Cc2ccc[nH]2)cc1 [Example 23, 3-(4-Methoxyphenylethyl)-4-[(pyrrol-2-yl)methylene]-2-pyrazolin-5-one] | 137 to 139 °C
O=C1NN=C(COc2ccc(-c3ccccc3)cc2)C1=Cc1ccc[nH]1 [Example 24, 3-(4-Phenylphenyloxymethyl)-4-[(pyrrol-2-yl)methylene]-2-pyrazolin-5-one] | 192 to 194 °C
CC(CC1=NNC(=O)C1=Cc1ccc[nH]1)c1ccccc1 (centres unmarked) [Example 25, 3-(2-Phenylpropyl)-4-[(pyrrol-2-yl)methylene]-2-pyrazolin-5-one] | 130 to 131 °C
O=C1NN=C(CCCc2ccccc2)C1=Cc1ccc[nH]1 [Example 26, 3-(3-Phenylpropyl)-4-[(pyrrol-2-yl)methylene]-2-pyrazolin-5-one] | 169 to 170 °C
O=C1NN=C(CCc2ccc(O)cc2)C1=Cc1ccc[nH]1 [Example 27, 3-(4-Hydroxyphenylethyl)-4-[(pyrrol-2-yl)methylene]-2-pyrazolin-5-one] | 253 to 255 °C
Cc1cc(C)c(C=C2C(=O)NN=C2CCc2ccccc2)[nH]1 [Example 28, 4-[(3,5-Dimethylpyrrol-2-yl)methylene]-3-phenylethyl-2-pyrazolin-5-one] | 186 to 187 °C
Cc1ccc(CCC2=NNC(=O)C2=Cc2ccc[nH]2)cc1 [Example 29, 3-(4-Methylphenylethyl)-4-[(pyrrol-2-yl)methylene]-2-pyrazolin-5-one] | 153 to 154 °C
Cc1cc(C)c(C=C2C(=O)NN=C2OC(C)C)[nH]1 [Example 30, 4-[(3,5-Dimethylpyrrol-2-yl)methylene]-3-isopropoxy-2-pyrazolin-5-one] | 176 to 177 °C
CCOC1=NNC(=O)C1=Cc1ccc[nH]1 [Example 31, 3-Ethoxy-4-[(pyrrol-2-yl)methylene]-2-pyrazolin-5-one] | 211 to 213 °C
O=C1NN=C(CCc2ccc([N+](=O)[O-])cc2)C1=Cc1ccc[nH]1 [Example 32, 3-(4-Nitrophenylethyl)-4-[(pyrrol-2-yl)methylene]-2-pyrazolin-5-one] | 224 to 226 °C
O=C1NN=C(Nc2ccc(F)cc2)C1=Cc1ccc[nH]1 [Example 33, 3-(4-Fluorophenylamino)-4-[(pyrrol-2-yl)methylene]-2-pyrazolin-5-one] | 272 to 273 °C
O=C1NN=C(CCc2ccc(Cl)cc2)C1=Cc1ccc[nH]1 [Example 34, 3-(4-Chlorophenylethyl)-4-[(pyrrol-2-yl)methylene]-2-pyrazolin-5-one] | 193 to 194 °C
Cc1cc(C=C2C(=O)NN=C2OC(C)C)[nH]c1C [Example 35, 4-[(4,5-Dimethylpyrrol-2-yl)methylene]-3-isopropoxy-2-pyrazolin-5-one] | 195 to 197 °C
CCc1c(C)[nH]c(C=C2C(=O)NN=C2OC(C)C)c1C [Example 36, 4-[(3,5-Dimethyl-4-ethylpyrrol-2-yl)methylene]-3-isopropoxy-2-pyrazolin-5-one] | 188 to 190 °C
CCc1c(C)[nH]c(C=C2C(=O)NN=C2CCc2ccccc2)c1C [Example 37, 4-[(3,5-Dimethyl-4-ethylpyrrol-2-yl)methylene]-3-phenylethyl-2-pyrazolin-5-one] | 168 to 170 °C
CC(C)OC1=NNC(=O)C1=Cc1cccn1CCCCO [Example 38, 4-{[1-(4-Hydroxybutyl)pyrrol-2-yl]methylene}-3-isopropoxy-2-pyrazolin-5-one] | 138 to 140 °C
O=C1NN=C(OC2CCCC2)C1=Cc1ccc[nH]1 [Example 39, 3-Cyclopentyloxy-4-[(pyrrol-2-yl)methylene]-2-pyrazolin-5-one] | 201 to 203 °C
Cc1c[nH]c(C=C2C(=O)NN=C2OC(C)C)c1 [Example 41, 3-Isopropoxy-4-[(4-methylpyrrol-2-yl)methylene]-2-pyrazolin-5-one] | 215 to 217 °C
Cc1c[nH]c(C=C2C(=O)NN=C2CCc2ccc(N)cc2)c1 [Example 42, 3-(4-Aminophenylethyl)-4-[(4-methylpyrrol-2-yl)methylene]-2-pyrazolin-5-one] | 178 to 180 °C
CC(C)OC1=NNC(=O)C1=Cc1cccn1C [Example 43, 3-Isopropoxy-4-[(1-methylpyrrol-2-yl)methylene]-2-pyrazolin-5-one] | 199 to 201 °C
Cc1ccc(C=C2C(=O)NN=C2OC(C)C)[nH]1 [Example 44, 3-Isopropoxy-4-[(5-methylpyrrol-2-yl)methylene]-2-pyrazolin-5-one] | 128 to 130 °C
